# From US20250092086A1, “CELASTROL SALTS, CRYSTALLINE FORMS, AND USES THEREOF” (ERX Pharmaceuticals Inc., priority 2022, published 2025)
# Entries after “also recorded” stand apart in the source; their conditions may differ. Read-outs that look alike come from different tables or passages of the source.
# What was measured:
# [1] = Hygroscopicity (DVS), water sorption/desorption at 37° C.; type: physicochemical; conditions: for Hysteresis observed with the final mass at 50% RH / Mass decrease as the RH was lowered to 0% / Mass increase as the RH was increased to 95% / Water uptake, water sorption/desorption isotherms / Hysteresis with the final mass at 50% RH: DVS, 37° C.; for DVS (hygroscopicity): water sorption/desorption isotherms at 37° C., 0-95% RH
# Method: The hygroscopicity experiments were carried out with a DVS Intrinsic from S.M.S. This technique is designed to accurately measure a sample's change in mass as it sorbs precisely controlled concentrations of water vapors in an air carrier gas. The method used for DVS experiments (at 37° C.) is summarized below. • Equilibrating 10 min at 50% RH • Decreasing to 0% RH in 60 min • Equilibrating 10 min at 0% RH • Increasing to 95% RH in 280 min • Equilibrating 10 min at 95% RH • Decreasing to 50% RH in 100 min • Equilibrating 20 min at 50% RH
# (§1) The hygroscopic experiments were carried out with a DVS Intrinsic from S.M.S. This technique is designed to accurately measure a sample's change in mass as it sorbs precisely controlled concentrations of water vapors in an air carrier gas. All the methods used for DVS experiments are summarized below. It should be noticed that the temperature and relative humidity (RH) are pre-set according to the initial temperature and RH.
# • Equilibrating 120 min at 50% RH • Decreasing to 0% RH in 60 min • Equilibrating 150 min at 0% RH • Increasing to 95% RH in 200 min • Equilibrating 360 min at 95% RH • Decreasing to 50% RH in 100 min • Equilibrating 150 min at 50% RH
# as §1, with “hygroscopicity” for “hygroscopic”, “below, and it” for “below. It”
# as §1, with “hygroscopicity” for “hygroscopic”
# [2] = XRPD under temperature and relative humidity; type: physicochemical; conditions: for XRPD under temperature: impact / new crystalline phase: 25 to 100° C., RH set at 30%; for XRPD under relative humidity: impact / new crystalline phase: RH 10 to 80-90% at 40° C.; for Physical stability under the conditions tested (temperature and RH): XRPD, 25-100° C. and 10-90% RH at 40° C.
# Method: Method 1: influence of temperature at ambient RH. RH was set at 30% in order to simulate a RH near from the ambient RH, and the temperature studied were 25-[…]-100° C.
# Method 2: influence on RH at 40° C. The RH studied was at 10-30-80%.
# These experiments studied the influence of temperature at ambient RH. RH was wet at 30% in order to simulate a RH near from the ambient RH, and the temperatures studied were 25-50-100° C.
# These experiments studied the influence on RH at 40° C. The RH studied were 10-30-88%.
# Using Method 1, the influence of temperature at ambient RH was studied. RH was set at 30% in order to simulate a RH near from the ambient RH, and the temperatures studied were 25-50-100° C. FIG. 24 provides the XRPD pattern representing the influence of temperature on Compound 1 Form I.
# Using Method 2, the influence on RH at 40° C. was studied. The RH studied were 10-30-90%.
# Using Method 1, the influence of temperature at ambient RH was studied. RH was set at 30% in order to simulate a RH near from the ambient RH. Temperature studied: 25-50-100° C.
# Using Method 2, the influence on RH at 40° C. was studied at 10-30-90%.
# [3] = counter-ion, cited from earlier work; for pKa (B): basic function
# [4] = Solubility in water at 37° C.; type: physicochemical
# Source text: This compound can be considered as very slightly soluble (<1 g/L).
# [5] = Solubility study of Compound I Form I in various solvents and temperatures; type: physicochemical
# Method: The solubility of Compound 1 Form I was assessed in order to identify potential crystallization media. Compound 1 Form I was found very soluble in dichoromethane even at low temperature (10° C.).
compound,measurement,setting,value
"CC1=C(O)C(=O)C=C2C1=CC=C1[C@@]2(C)CC[C@@]2(C)[C@@H]3C[C@](C)(C(=O)O)CC[C@]3(C)CC[C@]12C [Compound 1 Form II, 3-hydroxy-9β,13α-dimethyl-2-oxo-24,25,26-trinoroleana-1(10),3,5,7-tetraen-29-oic acid]",Hysteresis observed with the final mass at 50% RH,[1],No hysteresis
same,Mass decrease as the RH was lowered to 0%,[1],~0.08 % w/w
same,Mass increase as the RH was increased to 95%,[1],about 0.13 % w/w
same,"Water uptake, water sorption/desorption isotherms",[1],< 0.2 % w/w
same,DVS (hygroscopicity),[1],non-hygroscopic
same,DVS (hygroscopicity),[1]; listed as FII,Not hygroscopic
same,XRPD under temperature: impact / new crystalline phase,[2],No impact
same,XRPD under temperature: impact / new crystalline phase,[2]; listed as FII,=>No new crystalline
same,XRPD under relative humidity: impact / new crystalline phase,[2],No impact
same,XRPD under relative humidity: impact / new crystalline phase,[2]; listed as FII,=>No new crystalline
same,Physical stability under the conditions tested (temperature and RH),[2],good stability
NCCCC[C@H](N)C(=O)O [L-Lysine],pKa (A),[3]; acid function,2.16
same,pKa (B),[3],9.18
CC1=C(O)C(=O)C=C2C1=CC=C1[C@@]2(C)CC[C@@]2(C)[C@@H]3C[C@](C)(C(=O)O)CC[C@]3(C)CC[C@]12C [Compound 2],Solubility in water at 37° C.,[4],< 1.5 g/L
same,Solubility in water at 37° C.,[4]; listed as Trometamol salt,(s < 1.5 g/L)
same,Hysteresis with the final mass at 50% RH,[1],~3 % w/w
same,Mass decrease as the RH was lowered to 0%,[1],~3.8 % w/w
same,Mass increase as the RH was increased to 95%,[1],11 % w/w
same,"Water uptake, water sorption/desorption isotherms",[1],2 ˜15 % w/w
same,DVS (hygroscopicity),[1],hygropscopic
same,DVS (hygroscopicity),[1]; listed as Trometamol salt,Hygroscopic
same,XRPD under temperature: impact / new crystalline phase,[2],No impact of temperature
same,XRPD under temperature: impact / new crystalline phase,[2]; listed as Trometamol salt,=>No new crystalline phase until 100 °C
same,XRPD under relative humidity: impact / new crystalline phase,[2],formation of a new crystalline pattern
same,XRPD under relative humidity: impact / new crystalline phase,[2]; listed as Trometamol salt,less stable physically under relative humidity; also recorded: =>New crystaline phase from 80% RH
"CC1=C(O)C(=O)C=C2C1=CC=C1[C@@]2(C)CC[C@@]2(C)[C@@H]3C[C@](C)(C(=O)O)CC[C@]3(C)CC[C@]12C [Compound 1, (2R,4aS,6aS,12bR,14aS,14bR)-10-hydroxy-2,4a,6a,9,12b,14a-hexamethyl-11-oxo-1,2,3,4,4a,5,6,6a,11,12b,13,14,14a,14b-tetradecahydropicene-2-carboxylic acid]",Solubility in water at 37° C.,[4],below 1 g/L
same,solubility,[4]; 37 °C,< 1000 µg/mL
same,Solubility in water at 37° C.,[4]; listed as Free compound,(s < 1 g/L)
same,Hysteresis with the final mass at 50% RH,[1],~0.1 wt-%
same,Mass decrease as the RH was lowered to 0%,[1],~0.1 % w/w
same,Mass increase as the RH was increased to 95%,[1],~0.2 % w/w
same,"Water uptake, water sorption/desorption isotherms",[1],< 0.2 wt-%
same,DVS (hygroscopicity),[1],non-hygroscopic
same,DVS (hygroscopicity),[1]; listed as Free compound,Non hygroscopic
same,DVS (hygroscopicity),[1]; listed as free Celastrol,Non-hygroscopic
same,DVS (hygroscopicity),[1]; listed as free compound,non hygroscopic
same,XRPD under temperature: impact / new crystalline phase,[2]; listed as Free compound,=>No new crystalline phase until
same,XRPD under temperature: impact / new crystalline phase,[2]; listed as free Celastrol,no new crystalline phase until 100 °C
same,XRPD under temperature: impact / new crystalline phase,[2]; listed as free compound,No impact
same,XRPD under relative humidity: impact / new crystalline phase,[2]; listed as Free compound,=>No new crystalline phase from
same,XRPD under relative humidity: impact / new crystalline phase,[2]; listed as free Celastrol,no new crystalline phase from 10 to 90% RH
same,XRPD under relative humidity: impact / new crystalline phase,[2]; listed as free compound,physically stable under relative humidity; also recorded: No impact
same,Physical stability under the conditions tested (temperature and RH),[2]; listed as free compound,physically stable
"CC1=C(O)C(=O)C=C2C1=CC=C1[C@@]2(C)CC[C@@]2(C)[C@@H]3C[C@](C)(C(=O)O)CC[C@]3(C)CC[C@]12C [Compound 1 Form I, 3-hydroxy-9β,13α-dimethyl-2-oxo-24,25,26-trinoroleana-1(10),3,5,7-tetraen-29-oic acid]",solubility,"[5]; CH2Cl2/EtOH 20/80, organic solvent or mixture, CH2Cl2-2/EtOH 20/80, 40° C.",31 to 40 mg/mL
same,solubility,"[5]; aqueous with cosolvent or surfactant or cyclodextrin, MeOH/Water 67/33/V, 10° C.",< 2 mg/mL
same,solubility,"[5]; aqueous with cosolvent or surfactant or cyclodextrin, Water/EtOH 50/50, 10° C.",< 11 mg/mL
same,solubility,"[5]; aqueous with cosolvent or surfactant or cyclodextrin, Water/EtOH 50/50, 25° C.",< 11 mg/mL
same,Solubility in dichoromethane,"[5]; dichoromethane, even at low temperature (10° C.)",very soluble
same,Solubility in dichoromethane/ethanol 50:50 (V/V) at high temperature,"[5]; dichoromethane/ethanol 50:50 (V/V), high temperature",relatively good solubility
same,Solubility in dichoromethane/ethanol 50:50 (V/V) at low temperature,"[5]; dichoromethane/ethanol 50:50 (V/V), low temperature",low solubility
same,solubility,"[5]; methanol, organic solvent or mixture, MeOH, 10° C.",8 to 11 mg/mL
same,solubility,"[5]; methanol, organic solvent or mixture, MeOH, 50° C.",~36 mg/mL
same,solubility,"[5]; organic solvent or mixture, CH2Cl2, 25° C.",> 120 mg/mL
same,solubility,"[5]; organic solvent or mixture, CH2Cl2/EtOH 10/90, 10° C.",11 to 15 mg/mL
same,solubility,"[5]; organic solvent or mixture, CH2Cl2/EtOH 10/90, 40° C.",< 25 mg/mL
same,solubility,"[5]; organic solvent or mixture, CH2Cl2/EtOH 30/70, 10° C.",25 to 45 mg/mL
same,solubility,"[5]; organic solvent or mixture, CH2Cl2/EtOH 50/50, 10° C.",> 40 mg/mL
same,solubility,"[5]; organic solvent or mixture, CH2Cl2/EtOH 70/30, 10° C.",> 40 mg/mL
same,solubility,"[5]; organic solvent or mixture, CH2Cl2/EtOH 90/10, 10° C.",> 40 mg/mL
same,solubility,"[5]; organic solvent or mixture, Ethanol, 25° C.",9 to 14 mg/mL
same,solubility,"[5]; organic solvent or mixture, Ethyl acetate, 10° C.",20 to 40 mg/mL
same,solubility,"[5]; organic solvent or mixture, Propan-2-ol, 10° C.",< 25 mg/mL
same,solubility,"[5]; organic solvent or mixture, Propan-2-ol, 50° C.",25 to 40 mg/mL
same,Hysteresis observed with the final mass at 50% RH,[1],No hysteresis; also recorded: slight hysteresis
same,"Water uptake, water sorption/desorption isotherms",[1],< 0.2 % w/w
same,DVS (hygroscopicity),[1],non hygroscopic; also recorded: non-hygroscopic
same,DVS (hygroscopicity),[1]; listed as Compound I Form I,Non-hygroscopic
same,DVS (hygroscopicity),[1]; listed as FI,Not hygroscopic
same,XRPD under temperature: impact / new crystalline phase,[2],No impact
same,XRPD under temperature: impact / new crystalline phase,[2]; listed as Compound I Form I,no new crystalline phase until 100 °C
same,XRPD under temperature: impact / new crystalline phase,[2]; listed as FI,=>No new crystalline
same,XRPD under relative humidity: impact / new crystalline phase,[2],No impact
same,XRPD under relative humidity: impact / new crystalline phase,[2]; listed as Compound I Form I,no new crystalline phase from 10 to 90% RH
same,XRPD under relative humidity: impact / new crystalline phase,[2]; listed as FI,=>No new crystalline
same,Physical stability under the conditions tested (temperature and RH),[2],good stability
"NC(CO)(CO)CO [trometamol, tris(hydroxymethyl)aminomethane]",pKa (B),[3],8.2
